Test results as given in ChEMBL document CHEMBL1126468, “Antineoplastic bicyclicsulfonylureas” (Bioorg Med Chem Lett, 1992).

Tested on: Mus musculus
Test: Percent inhibition is the ratio of tumor weight of treated animals at a dose 160 mg/kg given daily to 8 mice perorally versus the untreated control mice infected with 6C3HED lymphosarcoma
Assay type: functional
Conditions: route oral

| SMILES | inhibition in vivo at 160 mg/kg [%] |
| --- | --- |
| O=C(Nc1ccc(Cl)cc1)NS(=O)(=O)c1ccc2ccoc2c1 | 100 |

Tested on: not listed separately
Test: Inhibition of tumor growth in 6C3HED lymphosarcoma inoculated mice following 150 mg/kg p.o. o.d.
Assay type: functional
Conditions: Mus musculus, route oral

| SMILES | inhibition in vivo at 150 mg/kg [%] |
| --- | --- |
| O=C(Nc1ccc(Cl)cc1)NS(=O)(=O)c1ccc2cc[nH]c2c1 | 37 |
| O=C(Nc1ccc(Cl)cc1)NS(=O)(=O)c1ccc2occc2c1 | 100 |
| Cc1ccc2sc(S(=O)(=O)NC(=O)Nc3ccc(Cl)cc3)cc2c1 | 10 |
| COc1cc(S(=O)(=O)NC(=O)Nc2ccc(Cl)cc2)cc2ccoc12 | 51 |
| Cc1ccc(NC(=O)NS(=O)(=O)c2ccc3occc3c2)cc1 | 84 |
| Cc1cccc2cc(S(=O)(=O)NC(=O)Nc3ccc(Cl)cc3)oc12 | 21 |
| O=C(Nc1ccc(Cl)cc1)NS(=O)(=O)c1cccc2occc12 | 84 |
| O=C(Nc1ccc(Cl)cc1)NS(=O)(=O)c1cc2ccccc2[nH]1 | 26 |
| O=C(Nc1ccc(Cl)cc1)NS(=O)(=O)c1csc2ccccc12 | 43 |
| O=C(Nc1ccc(Cl)cc1)NS(=O)(=O)c1cc2cc(Cl)ccc2o1 | 40 |
| Cc1ccc2oc(S(=O)(=O)NC(=O)Nc3ccc(Cl)cc3)cc2c1 | 6 |
| Cc1cc2cc(S(=O)(=O)NC(=O)Nc3ccc(Cl)cc3)ccc2o1 | 57 |
| Cc1ccc(NC(=O)NS(=O)(=O)c2cc3ccccc3o2)cc1 | 11 |
| O=C(Nc1ccc(Cl)cc1)NS(=O)(=O)c1cc2ccccc2o1 | 84 |
| O=C(Nc1ccc(Br)cc1)NS(=O)(=O)c1cc2ccccc2o1 | 48 |
| O=C(Nc1ccc(Cl)c(Cl)c1)NS(=O)(=O)c1cc2ccccc2o1 | 28 |
| COc1ccc2oc(S(=O)(=O)NC(=O)Nc3ccc(Cl)cc3)cc2c1 | 25 |
| O=C(Nc1ccc(Cl)cc1)NS(=O)(=O)c1cc2cccc(Br)c2o1 | 18 |
| Cc1coc2ccc(S(=O)(=O)NC(=O)Nc3ccc(Cl)cc3)cc12 | 44 |
| Cc1cc(S(=O)(=O)NC(=O)Nc2ccc(Cl)cc2)cc2ccoc12 | 89 |
| O=C(Nc1ccc(Cl)cc1)NS(=O)(=O)c1cc2ccccc2s1 | 47 |

Tested on: Mus musculus
Test: Percent inhibition is the ratio of tumor weight of treated animals at a dose 80 mg/kg given daily to 8 mice perorally versus the untreated control mice infected with 6C3HED lymphosarcoma
Assay type: functional
Conditions: route oral

| SMILES | inhibition in vivo at 80 mg/kg [%] |
| --- | --- |
| O=C(Nc1ccc(Cl)cc1)NS(=O)(=O)c1ccc2sccc2c1 | 44 |
